# Legend:
# [1] = test system: sweetness of orange juice beverage; assay: Panel sweetness of 75% orange juice with Compound 3 compared to 100% orange juice; assay type: in vivo
# Experimental: Concentrated citrus juice (e.g., orange juice concentrate and lemon juice concentrate) can be used to emulsify flavor oils directly. Dilutions of the Compound 3 were made by dissolving the compound into NEOBEE® M-5 oil at 20 mg/ml and into triacetin at 40 mg/ml. These dilutions were then added to orange juice concentrate (60 brix and 63 brix) and lemon juice concentrate (400 gpl) to deliver a final concentration of 15-30 ppm Compound 3, and blended with the Silverson High Shear Mixer. The juices were diluted to their single strength levels (or less) for final consumption.
# In one example, Compound 3 was dissolved into triacetin at a concentration of 40 mg/ml. The Compound 3-triacetin mixture was added to orange juice concentrate (1+3 throw) and blended using a high shear mixer. The concentrate was then diluted to a 75% juice product (8.85 brix) and compared to single strength orange juice (11.8 brix). The test sample contained Compound 3 at 20 ppm. Other test variables using 1+5 were included in the panel. Tests were performed with just Compound 3 in orange juice at full strength and 75%. Compound 3 was dosed at 20 and 30 ppm, and the resulting solutions were tested at day 1, 7, 14, and 21. N varied between 9 and 14 panelists.
# [2] = Beverage emulsion delivery systems, physical stability; assay type: physicochemical; details: NEOBEE® M-5 oil phase with Q-NATURALE®, no weighting agent
# Experimental: Utilizing the triacetin and NEOBEE® M-5 oil solutions described in Example 6, emulsion systems were prepared to develop a clear delivery system. A suitable emulsion system would need to have a particle size of under 100 nanometers. A series of trials were conducted in which the triacetin and NEOBEE® M-5 oil solutions were combined with a variety of matrices including preserved water (i.e., water comprising 500 ppm sodium benzoate, 400 ppm potassium sorbate and 1000 ppm citric acid), Q-[…]®, lecithin, lyso-lecithin, and citrus oil. Pre-homogenization utilizing a Silverson High Shear mixer and final homogenization utilizing a high pressure homogenizer at 20,000 psi (up to 10 passes) only achieved a particle size reduction to 146 nanometers. The emulsions were stable in beverage but were opaque. […] Therefore incorporating the compounds into a cloudy beverage emulsion or homogenizing it into a cloudy citrus (orange juice) product may be beneficial. Without being bound by theory, the opacity of the beverage would, in effect, shield the compound from the detriment of light.
# For a standard beverage emulsion, the compounds need to be dissolved in the oil phase of the emulsion. Unfortunately, the compounds were mostly insoluble in citrus oil (orange oil 5×). […]
# [3] = Solubilization of the compounds in solvents/solubilizers and clarity in lemon-lime beverage; assay type: physicochemical; details: for Time final beverage remained a clear solution: sucrose co-melt (caramel-melts), Q-NATURALE® 200
# Experimental: To identify a sufficient delivery mechanism for the sweet enhacing compounds of the present invention, several method of solublization were tested for use in clear beverages. The overall goal was to solubilize the compounds of the invention and have them be deliverable in a clear, carbonated beverage, which can be sweetened with various forms of nutritive and non-nutritive sweeteners without negative flavor impact, i.e. no loss in efficacy (the sweetness perception increase) and no off-flavor formation. In particular, the goal was to identify a delivery mechanism that would allow the compounds to be delivered to the beverage at an “as consumed” level between 10 ppm and 50 ppm. […] The carrier ingredients should not impart any negative physical attributes or negative flavor attributes to the product. An ideal delivery system would not require the labeling of any carrier ingredients and would work with a beverage concentrate model system, preferably a 1+5 concentrate throw.
# Initial trials were conducted to dissolve the compound in various flavor type solvents, including ethanol, 200 proof; triacetin; propylene glycol; lemon-lime flavor extract; lemon oil (washed); citrus oil; polysorbate 80; polysorbate 60; polysorbate 20; benzyl alcohol; and NEOBEE® M-5 oil.
# In polysorbate formulations, Compound 3 and the polysorbates were accurately weighed into screw-capped glass vials according to Table 8 and heated at 70-90° C. and vortex mixed to facilitate the solubilization. The resulting mixtures were blended into 41.5 brix lemon-lime flavored beverage syrup under stirring and stored overnight at room temperature. The syrup was diluted with 5× water to achieve the final 7.7 brix lemon-lime beverage.
# For example, Compound 3 and polysorbate 80 were accurately weighed into screw-capped glass vials according to Table 9 and heated at 70-90° C. and vortex mixed to facilitate the solubilization. Q-[…]® was added to the 41.5 brix lemon-lime flavored beverage syrup. The polysorbate 80 mixtures were blended into 41.5 brix lemon-lime flavored beverage syrup with Q-[…]® 200 and vortex mixed at 3000 rpm for 75 seconds. The resulting syrups were stored overnight at room temperature. The syrup was then diluted with 5× water to achieve the final 7.7 brix lemon-lime beverage. […] Solution PQ2 was able to maintain clear solution for 1 month.
# Because Q-[…]® was able to maintain the stability of the sweet enhancing compounds, it was evaluated in combination with additional solvents. […] In another example, Compound 3, Q-[…]®, and either 1,2-propylene glycol or ethanol 200 proof were accurately weighed into screw-capped glass vials according to Table 10 and heated and vortex mixed to facilitate the solubilization. The resulting solution mixtures were blended into 41.5 brix lemon-lime flavored beverage syrup and vortexed at 3000 rpm for 75 seconds. The resulting syrups were stored overnight at refrigerated temperature and diluted with 5× water to achieve the final 7.7 brix lemon-lime beverage. All solutions (i.e., PGEQ1-PGEQ4) were able to maintain clear solution for 33 days at room temperature and 14 days at refrigerated temperature.
# In another example, 40 mg Compound 3 and 1 g rubusoside were weighed into 20 ml glass vials. 20 ml water was added to the vial, which was vortex mixed slightly to form a suspension solution. The suspension was homogenized at 8000 rpm using a Silverson L5M-A to from an emulsion. The emulsion was heated at 121° C. for 1 h. The sample after heating was suspended at room temperature for 24 h to equilibrate and was filtered afterward. The weight ratio between rubusoside and Compound 3 was determined to be 147:1. Therefore, […] rubusoside was needed to solubilize 25 ppm Compound 3.
# The ability of sugar to co-melt with compounds of the invention was also evaluated. 30 mg Compound 3 and 150 mg sucrose were dissolved in a solvent mixture of 9 ml ethanol and 1 ml water. […]
# [4] = heated at 70-90° C., vortex mixed
smiles,measurement,setting,value
"COc1ccc(C2CC(=O)c3c(O)cccc3O2)cc1O (single isomer, unassigned) [Compound 3, 5-hydroxy-2-(3-hydroxy-4-methoxyphenyl)chroman-4-one]",Relative Sweetness Compared to Control (100% OJ),"[1]; T1: 75% OJ w/20 ppm, Fresh, Day 1 (Fresh)",Same as Control
same,Relative Sweetness Compared to Control (100% OJ),"[1]; T2: 75% OJ w/30 ppm, Aged, Day 21",added sweetness
same,Relative Sweetness Compared to Control (100% OJ),"[1]; T2: 75% OJ w/30 ppm, Fresh, Day 1 (Fresh)",Same as Control
same,Physical stability of emulsion,[2],physically stable
same,Precipitation of final beverages,"[3]; encapsulated with alpha-, beta-, gamma-cyclodextrin (molar 1:1, 1:2, 1:4), 25 ppm in 7.7 brix lemon-lime beverage",had precipitates
same,Dissolution in polysorbate 20,[3]; [4],did not dissolve
same,Dissolution in polysorbate 60,[3]; [4],did not dissolve
same,Precipitation in final beverages,"[3]; polysorbate 80 solutions PS1-PS6, 7.7 brix lemon-lime beverage",precipitated overnight
same,Time final beverage remained a clear solution,"[3]; 7.7 brix lemon-lime beverage, refrigerated temperature",14 days
same,Time final beverage remained a clear solution,"[3]; 7.7 brix lemon-lime beverage, room temperature",30 days

# Source: US20160015064A1, “COMPOUNDS, COMPOSITIONS, AND METHODS FOR MODULATING SWEET TASTE” (CHROMOCELL CORPORATION, priority 2013, published 2016)
